Data from patent US12064464B2, “Plantaricin NC8 alpha beta markedly enhances the effects of antibiotics” (priority 2018, dated 2024).
“Also recorded” adds a separate entry of the source. Where two headings read alike, the source gives them in different places.

Legend:
Pseudomonas aeruginosa = assay: Broth microdilution MIC/MBC; assay type: cell-based; conditions: P. aeruginosa, antibiotic alone, unit not given
Text: (§1) Staphylococcus aureus CCUG 35601 (MRSA, Culture Collection, University of Gothenburg) and Staphylococcus aureus ATCC 29213 (MSSA, ATCC, Manassas, VA). Staphylococcus epidermidis ATCC 12228 (ATCC, Manassas, VA), RP62A, N15 and 10 clinical isolates of Staphylococcus epidermidis that have previously been characterized. Isolated Escherichia coli, Enterococcus faecium (including VRE), Pseudomonas aeruginosa, Klebsiella pneumoniae, Enterobacter spp and Acinetobacter baumannii were obtained from Orebro University hospital. Isolated Streptococcus mutans, Streptococcus constellatus and Streptococcus anginosus were obtained from Malmo University. The bacteria were grown on Luria-Bertani (LB) agar plates, supplemented with 5% defibrinated horse blood, and incubated at 37° C. overnight. Single colonies were inoculated into 5 ml of LB broth and incubated on a shaker (300 rpm) at 37° C. overnight. The bacterial concentration was determined by viable count and adjusted to correlate with approximately 10^9 CFU/ml.
(§2) The broth microdilution method was used to determine minimal inhibitory concentration (MIC) and minimal bactericidal concentration (MBC). Two-fold serial dilutions of the peptides were used and the final concentrations ranged from 0.097-50 μM. […] The effect of bacteriocin-antibiotic combinations was accomplished by using the same concentration series of antibiotics with a constant concentration of PLNC8 αβ (3.1 μM) in all the wells. […] All experiments were repeated at least three times.

[1] = test system: S. epidermidis ATCC 12228; assay: Broth microdilution MIC/MBC; assay type: cell-based, Staphylococcus epidermidis; conditions: for enhancement of the inhibitory effects of β1-20 and β7-20: co-incubation with α-peptide; for inhibitory and bactericidal effects on S. epidermidis: α-peptide in combination with the β-peptide; for growth inhibition of S. epidermidis: single full-length or truncated peptide
Text: as §1, §2

S. epidermidis = assay: Broth microdilution MIC/MBC, strain not named; assay type: cell-based, Staphylococcus epidermidis; conditions: for MBC / MIC: Table 8, antibiotic alone
Text: as §1, §2

Enterococcus faecium = assay: Broth microdilution MIC/MBC; assay type: cell-based; conditions: antibiotic alone, unit inferred; for MIC: unit assumed
Text: as §1, §2

Escherichia coli = assay: Broth microdilution MIC/MBC; assay type: cell-based; conditions: antibiotic alone, unit not given; for MBC: in µg/mL
Text: as §1, §2

[2] = test system: S. aureus CCUG 35601 (MRSA); assay: Broth microdilution MIC/MBC; assay type: cell-based, Staphylococcus aureus
Text: as §1, §2

[3] = test system: S. epidermidis 126 (hGISE strain); assay: Broth microdilution MIC/MBC; assay type: cell-based, Staphylococcus epidermidis
Text: as §1, §2

[4] = test system: S. epidermidis 157 (hGISE strain); assay: Broth microdilution MIC/MBC; assay type: cell-based, Staphylococcus epidermidis
Text: as §1, §2

S. epidermidis 154 = assay: Broth microdilution MIC/MBC; assay type: cell-based, Staphylococcus epidermidis
Text: as §1, §2

[5] = Fluorescence leakage assay (CF release from liposomes); conditions: for disruption of liposome membranes (CF release): peptide alone; for lysis of liposomes: after 2 min, both the L-form and D-form
Protocol: Liposomes were prepared by dry film formation, hydration and finally extrusion through a polycarbonate membrane to form monodisperse large unilamellar vesicles. […] A dry lipid film was formed by evaporation of the chloroform by nitrogen flow and overnight lyophilization. The film was hydrated with either 10 mM phosphate buffer (PB) pH 7 or 10 mM phosphate buffer saline (PBS) pH 7, and the solution was vortexed for 1 min and put on a shaker for 1 h before extruded 21 times through a 100 nm pore-sized polycarbonate membrane. For fluorescence leakage assay the lipid film was hydrated with buffer (PBS) containing self-quenching concentration (50 mM) of 5(6)-carboxyfluorescein (CF) (Sigma Aldrich) and liposomes were prepared as described above. Removal of unencapsulated CF was done by gel filtration using a PD-25 column (GE Healthcare, Uppsala, Sweden) and liposomes with encapsulated CF were eluted with PBS. Leakage of the liposome encapsulated fluorophore CF due to additions of the bacteriocins was recorded using a fluorescence plate reader (Infinite 200, Tecan, Austria) where λex=485 nm and λem=520 nm. CF was encapsulated at self-quenching concentration, and CF release results in an increased fluorescence signal. […] In order to estimate the maximum release from each sample a final addition of 0.5% Triton X-100 was made at the end of all measurements and the total amount of CF (100% release) was estimated after 15 min incubation. The CF release is presented as percentage release for each time interval (measurements taken every minute). The percentage CF release is calculated as 100×(F−F0)/(FT−F0) where F0 is the initial fluorescence intensity of CF before peptide addition, F is the fluorescence intensity of CF at time point t and FT is the maximum fluorescence after the addition of Triton X-100.

[6] = test system: S. epidermidis RP62A biofilms; assay: Bacterial biofilm disruption; assay type: cell-based, Staphylococcus epidermidis; conditions: 1 h
Protocol: S. epidermidis RP62A was inoculated into 5 ml of LB broth and incubated on a shaker at 37° C. overnight. The bacterial culture was diluted 1:100 into fresh media and 100 μl of bacterial suspension per well was added in a 96-well microtiter plate and incubated statically at 37° C. for 20 h. The wells were washed three times by submerging the plate into a container with distilled water to remove unattached cells. Fresh LB media was added to each well (100 μl) followed by addition of the peptides in different concentrations. The plate was incubated statically for 1 h. Detached material in the wells were transferred to a new microtiter plate for absorbance measurements at 620 nm. The remaining attached biofilms were stained with 0.1% crystal violet for 15 min before the plate was washed four times in distilled water as mentioned above and allowed to dry at room temperature for 2 h. The crystal violet was solubilized in 30% acetic acid for 15 min and the absorbance quantified at 550 nm. Each experiment, with three replicates, was repeated three times.

[7] = Vancomycin resistant E. faecium (VRE)
[8] = Non-ESBL E. coli, first isolate
[9] = Non-ESBL E. coli, second isolate
[10] = Staphylococcus epidermidis, 154
[11] = Staphylococcus epidermidis, ATCC12228
[12] = ESBL-producing E. coli, first isolate
[13] = ESBL-producing E. coli, second isolate
[14] = Table 3, MRSA, antibiotic alone

Molecule: C[C@H]1COc2c(N3CCN(C)CC3)c(F)cc3c(=O)c(C(=O)O)cn1c23 [Levofloxacin, reference compound]
- MBC (Pseudomonas aeruginosa; first isolate): 2
- MIC (Pseudomonas aeruginosa; first isolate): 1
- MBC (Pseudomonas aeruginosa; second isolate): 4
- MIC (Pseudomonas aeruginosa; second isolate): 4

Molecule: C[C@@H](O)[C@H]1C(=O)N2C(C(=O)O)=C(S[C@@H]3CN[C@H](C(=O)N(C)C)C3)[C@H](C)[C@H]12 [Meropenem, reference compound]
- MBC (Pseudomonas aeruginosa; first isolate): 50
- MIC (Pseudomonas aeruginosa; first isolate): 25
- MBC (Pseudomonas aeruginosa; second isolate): 25
- MIC (Pseudomonas aeruginosa; second isolate): 25

Molecule: CO[C@H]1/C=C/O[C@@]2(C)Oc3c(C)c(O)c4c(O)c(c(/C=N/N5CCN(C)CC5)c(O)c4c3C2=O)NC(=O)/C(C)=C\C=C\[C@H](C)[C@H](O)[C@@H](C)[C@@H](O)[C@@H](C)[C@H](OC(C)=O)[C@@H]1C [Rifampicin]
- MBC ([1]; Staphylococcus epidermidis, ATCC12228, Table 2, antibiotic alone, read-out: MBC): 0.5 µg/mL
- MIC ([1]; Staphylococcus epidermidis, ATCC12228, Table 2, antibiotic alone, read-out: MIC): 0.25 µg/mL
- MBC (S. epidermidis; Staphylococcus epidermidis, read-out: MBC): 0.5 µg/mL
- MIC (S. epidermidis; Staphylococcus epidermidis, read-out: MIC): 0.25 µg/mL
- effective amount of rifampicin (S. epidermidis; in the presence of L-PLNC8 αβ or D-PLNC8 αβ): 0.0019 µg/mL
- MBC (Enterococcus faecium; E. faecium, first isolate): > 50 µg/mL
- MIC (Enterococcus faecium; E. faecium, first isolate): > 50 µg/mL
- MBC (Enterococcus faecium; E. faecium, second isolate): > 50 µg/mL
- MIC (Enterococcus faecium; E. faecium, second isolate): 25 µg/mL
- MBC (Enterococcus faecium; [7]): 3.1 µg/mL
- MIC (Enterococcus faecium; [7]): < 0.097 µg/mL
- MIC (Escherichia coli; [8]): 6.25
- MIC (Escherichia coli; [9]): 6.25
- MBC (Escherichia coli; [9]): 25

Molecule: CN[C@H](CC(C)C)C(=O)N[C@H]1C(=O)N[C@@H](CC(N)=O)C(=O)N[C@H]2C(=O)N[C@H]3C(=O)N[C@H](C(=O)N[C@H](C(=O)O)c4cc(O)cc(O)c4-c4cc3ccc4O)[C@H](O)c3ccc(c(Cl)c3)Oc3cc2cc(c3O[C@@H]2O[C@H](CO)[C@@H](O)[C@H](O)[C@H]2O[C@H]2C[C@](C)(N)[C@H](O)[C@H](C)O2)Oc2ccc(cc2Cl)[C@H]1O [Vancomycin]
- MBC ([2]; Staphylococcus aureus): 3.1 µg/mL
- MIC ([2]; Staphylococcus aureus): 1.5 µg/mL
- MBC ([3]; Staphylococcus epidermidis): 3.1 µg/mL
- MIC ([3]; Staphylococcus epidermidis): 3.1 µg/mL
- MBC ([4]; Staphylococcus epidermidis): 6.25 µg/mL
- MIC ([4]; Staphylococcus epidermidis): 6.25 µg/mL
- MBC (S. epidermidis 154; [10]): 3.1 µg/mL
- MIC (S. epidermidis 154; [10]): 1.5 µg/mL
- MBC [1, 11]: 3.1 µg/mL
- MIC [1, 11]: 1.5 µg/mL

Molecule: DLTTKLWSSWGYYLG (Lactobacillus plantarum NC8) [α1-15]
- enhancement of the inhibitory effects of β1-20 and β7-20 [1]: not further enhanced; also recorded: did not further enhance

Molecule: DLTTKLWSSWGYYLGKKARWNL (Lactobacillus plantarum NC8) [α1-22]
- enhancement of the inhibitory effects of β1-20 and β7-20 [1]: not further enhanced; also recorded: did not further enhance
- inhibitory and bactericidal effects on S. epidermidis [1]: exerted inhibitory and bactericidal effects; also recorded: inhibited
- disruption of liposome membranes (CF release) [5]: disrupted the membrane of the liposomes

Molecule: Gentamicin
- MBC ([1]; Table 2, antibiotic alone): 0.31 µg/mL
- MIC ([1]; Table 2, antibiotic alone): 0.31 µg/mL
- MBC (Enterococcus faecium; E. faecium, first isolate): > 50 µg/mL
- MIC (Enterococcus faecium; E. faecium, first isolate): 50 µg/mL
- MBC (Enterococcus faecium; E. faecium, second isolate): 50 µg/mL
- MIC (Enterococcus faecium; E. faecium, second isolate): 50 µg/mL
- MBC (Enterococcus faecium; [7]): > 50 µg/mL
- MIC (Enterococcus faecium; [7]): > 50 µg/mL
- MIC (Escherichia coli; [12]): >50
- MBC (Escherichia coli; [12]): >50
- MIC (Escherichia coli; [13]): 3.125
- MBC (Escherichia coli; [13]): 6.25
- MIC (Escherichia coli; [8]): 1.56
- MBC (Escherichia coli; [8]): 1.56
- MIC (Escherichia coli; [9]): 1.56
- MBC (Escherichia coli; [9]): 3.125

Molecule: H-DLTTKLWSSWGYYLGKKARWNLKHPYVQF-OH [PLNC8 α]
- enhancement of the inhibitory effects of β1-20 and β7-20 [1]: not further enhanced
- inhibitory and bactericidal effects on S. epidermidis [1]: inhibited
- disruption of biofilms [6]: disruptive effects on the biofilms
- lysis of liposomes [5]: not
- disruption of liposome membranes (CF release) [5]: disrupted the membrane of the liposomes

Molecule: H-SVPTSVYTLGIKILWSAYKHRKTIEKSFNKGFYH-OH [PLNC8 β]
- growth inhibition of S. epidermidis [1]: inhibited
- disruption of biofilms [6]: disruptive effects on the biofilms
- lysis of liposomes [5]: complete lysis of liposomes after 2 min
- disruption of liposome membranes (CF release) [5]: Disruption of the liposome membranes

Molecule: SVPTSVYTLGIKILWSAYKH (Lactobacillus plantarum NC8) [β1-20]
- growth inhibition of S. epidermidis [1]: most efficiently inhibited; also recorded: most effective in inhibiting S. epidermidis; also recorded: inhibited
- disruption of liposome membranes (CF release) [5]: Disruption of the liposome membranes

Molecule: Teicoplanin
- MBC [2, 14]: 3.1 µg/mL
- MIC [2, 14]: 0.78 µg/mL
- MBC ([3]; Table 3, antibiotic alone): 6.25 µg/mL
- MIC ([3]; Table 3, antibiotic alone): 3.1 µg/mL
- MBC ([4]; Table 3, antibiotic alone): 25 µg/mL
- MIC ([4]; Table 3, antibiotic alone): 12.5 µg/mL
- MBC (S. epidermidis 154; Table 3, antibiotic alone): 1.5 µg/mL
- MIC (S. epidermidis 154; Table 3, antibiotic alone): 1.5 µg/mL
- MBC ([1]; Table 2, antibiotic alone): 1.5 µg/mL
- MIC ([1]; Table 2, antibiotic alone): 1.5 µg/mL
- MBC (S. epidermidis): 1.5 µg/mL
- MIC (S. epidermidis): 1.5 µg/mL
- MBC (Enterococcus faecium; E. faecium, first isolate): > 50 µg/mL
- MIC (Enterococcus faecium; E. faecium, first isolate): > 50 µg/mL
- MBC (Enterococcus faecium; E. faecium, second isolate): 25 µg/mL
- MIC (Enterococcus faecium; E. faecium, second isolate): 0.39 µg/mL
- MBC (Enterococcus faecium; [7]): 50 µg/mL
- MIC (Enterococcus faecium; [7]): 0.39 µg/mL
- MIC (Escherichia coli; [12]): >50
- MBC (Escherichia coli; [12]): >50
- MIC (Escherichia coli; [13]): >50
- MBC (Escherichia coli; [13]): >50
- MIC (Escherichia coli; [8]): >50
- MBC (Escherichia coli; [8]): >50
- MIC (Escherichia coli; [9]): >50
- MBC (Escherichia coli; [9]): >50

Molecule: YTLGIKILWSAYKH (Lactobacillus plantarum NC8) [β7-20]
- growth inhibition of S. epidermidis [1]: most efficiently inhibited; also recorded: inhibited
- disruption of liposome membranes (CF release) [5]: Disruption of the liposome membranes

Molecule: YTLGIKILWSAYKHRKTIEKSFNKGFYH (Lactobacillus plantarum NC8) [β7-34]
- growth inhibition of S. epidermidis [1]: inhibited
- disruption of liposome membranes (CF release) [5]: Disruption of the liposome membranes
